{"source": "paper PMC7126861", "about": "(Bioorganic & Medicinal Chemistry Letters, 2010)", "data": [{"target": "SARS-CoV 3CL^pro (Severe acute respiratory syndrome coronavirus, UniProt P0C6X7)", "assay": "biochemical", "units": {"IC50": "µM"}, "values": [{"smiles": "N#Cc1c(-c2ccccc2)nc(SCc2ccccc2)[nH]c1=O", "note": "[Compound 6a]", "IC50": "> 50"}, {"smiles": "N#Cc1c(-c2ccccc2)nc(SCCc2ccccc2)[nH]c1=O", "note": "[Compound 6b]", "IC50": "> 50"}, {"smiles": "COc1ccc(-c2nc(SCc3ccccc3)[nH]c(=O)c2C#N)cc1", "note": "[Compound 6d]", "IC50": "> 50"}, {"smiles": "Cc1ccc(-c2nc(SCc3ccccc3)[nH]c(=O)c2C#N)cc1", "note": "[Compound 6g]", "IC50": "> 50"}, {"smiles": "Cc1ccc(-c2nc(SCCc3ccccc3)[nH]c(=O)c2C#N)cc1", "note": "[Compound 6h]", "IC50": "> 50"}, {"smiles": "Cc1ccc(-c2nc(SCc3ccc([N+](=O)[O-])cc3)[nH]c(=O)c2C#N)cc1", "note": "[Compound 6i]", "IC50": "> 50"}, {"smiles": "N#Cc1c(-c2cccc([N+](=O)[O-])c2)nc(SCCc2ccccc2)[nH]c1=O", "note": "[Compound 6j]", "IC50": "> 50"}, {"smiles": "N#Cc1c(-c2cccc(Cl)c2)nc(SCc2ccccc2)[nH]c1=O", "note": "[Compound 6n]", "IC50": "> 50"}]}]}
